Series [1] relates to HCV replicon in Huh 5-2 cells. The series is described as follows: Drug combination studies (checker-board, Prichard and Shipman) in the HCV replicon system. It counts as cell-based, hepatitis C virus (HCV). The note with it: Figure S2. The method, then: (§1) The antiviral assay was performed as described, [22]. Briefly, cells were seeded at a density of 5×10^3 cells per well in 96-well cell culture plates in DMEM containing 250 µg/mL G418 at 37°C (5% CO2). After 24 hours of incubation, medium was replaced with fresh DMEM (without G418) and serial dilutions of the test compounds. Replicon RNA levels were determined by a quantitative reverse transcription polymerase chain reaction (qRT-PCR) or quantified by measuring the firefly luciferase activity in 96-well cell culture plates (Safire, Tecan, Austria).
The effects of drug combinations were evaluated in a checker-board format using the method of Prichard and Shipman. The theoretical additive effect was calculated from the dose–response curves of individual compounds by the equation Z = X+Y(1−X), where X represents the inhibition produced by first compound alone and Y the inhibition by the second compound alone. Z represents the effect produced by the combination of the first with the second compound. The theoretical additive surface is subtracted from the actual experimental surface, resulting in a horizontal surface that equals the zero plane when the combination is additive. A surface that lies above the zero plane indicates a synergistic effect of the combination, and a surface below the zero plane indicates an antagonism. […]
For orientation: Replicon systems follow genome replication, usually without infectious particles.

Series [2] deals with infectious HCV JFH-1/CS-N6 in Huh 7.5.1 cells. Briefly: microbe, parasite or virus in culture. It counts as cell-based, hepatitis C virus (HCV). The note with it: for SI: HCVcc system, CC50/EC50; for EC50: 3 days, qRT-PCR, mean ± SD, four independent experiments. As for the experimental part:
The highly infectious HCV JFH-1/CS-N6 described by Delgrange et al was used for the antiviral assays. A total of 7.2×10^3 Huh 7.5.1 cells per well of a 96-well cell culture plate were incubated with the virus at specific infectivity of about 400 (400 HCV RNA copies per foci-forming unit) and at the same time with serial dilutions of compounds. Following 3 days of incubation, medium was removed and cells were washed once and lysed to extract the intracellular RNA with the RNeasy kit (Qiagen). HCV RNA was quantified by means of qRT-PCR [25].
A qRT-PCR mixture contained: cellular RNA extract, HCV JFH-1 forward primer SF-JFH86 [5′-[…]-3′], reverse primer SR-JFH194 [5′-[…]-3′], and probe [5′-FAM-[…]-TAMRA-3′], was performed at 50°C for 30 min, subsequent 15 min at 95°C and PCR amplification of 40 cycles of denaturation at 94°C for 20 s and annealing and extension at 60°C for 1 min in an ABI 7500 Taqman (Live Technologies).

Series [3] has as its system HCV replicons I389luc-ubi-neo/NS3-3′/5.1 (Huh 5-2), genotype 1b subgenomic replicon. The series is described as follows: Antiviral assay in HCV replicon cells (Huh 5-2, firefly luciferase). The class given is cell-based, hepatitis C virus (HCV). The note with it: for EC50: Hepatitis C virus, read-out: EC50 (50% effective concentration), HCV replicon replication, Huh 5-2 subgenomic replicon (genotype 1b), firefly luciferase, mean ± SD, four independent experiments; for fold-change of EC50 with Hemin (5 µM) (value between brackets): Huh 5-2 replicon, potentiation by Hemin 5 µM. As for the experimental part:
Cells carrying HCV replicons I389luc-ubi-neo/NS3-3′/5.1 (Huh 5-2) were kindly provided by Prof. R. Bartenschlager (University of Heidelberg, Germany). Cells were cultured in Dulbecco’s modified Eagle’s Medium (DMEM, Gibco, Merelbeke, Belgium) supplemented with 10% heat-inactivated fetal bovine serum (Integro, Zaandam, The Netherlands), 1× non-essential amino acids, 100 IU/mL penicillin (Gibco), 100 µg/mL streptomycin (Gibco), and 250 µg/mL G418. Cell cultures were maintained at 37°C with 5% CO2.
as §1

Another series has as its system Huh 7.5.1 cells. The series is described as follows: Cytostatic assay (MTS/PMS) in Huh 7.5.1 cells. The class given is cell-based. The method, then:
(§2) Cells were seeded at a density of 5×10^3 or 7.2×10^3 cells per well in a 96-well plate in complete DMEM in serial dilutions of the test compounds for Huh 5-2 and Huh 7.5.1 cells, respectively. After three days of incubation, cell viability was determined by MTS/PMS method (Promega).

The nature of series [4]: Cytostatic assay (MTS/PMS) in Huh 7.5.1 cells. It counts as cell-based. The note with it: human. The method, then:
as §2

Series [5] in a line: Cytostatic assay (MTS/PMS) in Huh 5-2 cells. It counts as cell-based. The settings on record: human, three days. As for the experimental part:
as §2

Where [6] appears, read: Hepatitis C virus, Huh-7.5.1, 72 h, read-out: EC50 (50% effective concentration), replication of HCVcc, infectious HCV JFH-1 in Huh 7.5.1.
Where [7] appears, read: Huh 7.5.1 hepatoma cells, three days, MTS/PMS.
Setting [8] is: read-out: EC50 (50% effective concentration), replication of HCVcc, infectious HCV JFH-1 in Huh 7.5.1.

Where two headings read alike, the source gives them in different places.

As a reminder, the CC50 is the concentration at which the toxic effect on the cells reaches its halfway point. A lower CC50 goes with greater toxicity to the cells. Regarding `C[C@@H]1CC[C@H]2[C@@H](C)C(=O)O[C@@H]3O[C@@]4(C)CC[C@@H]1[C@]32OO4` [ART, Artemisinin, reference compound], the “effect of the combination with TEMPO” value in series [1] is given as “marginaly antagonistic effect”. In series [2], this compound registered an SI of more than 2. Also, the “potentiation of antiviral activity by Hemin in the HCVcc system” value in series [2] (Hemin at 5 µM) came out at 2 fold. Besides, the values for the EC50 in series [2] (setting [6]) and in series [3] were 167 ± 38 µM and 75 ± 7 µM, respectively. For the same compound, the “fold-change of EC50 with Hemin (5 µM) (value between brackets)” value (“fold-change of EC50 with Hemin (5 µM)” below) in series [3] is given as 8 fold. Further, the “host cell proliferation and cell viability at the highest concentration tested” value in the series on Huh 7.5.1 cells (400 µM, HCVcc system cells) is recorded as “not affected”. The CC50 at 3 days in series [4] (setting [7]) and in series [5] was more than 400 µM throughout.
As to `CC1CCC2C(C)C(OC(=O)c3ccccc3)OC3OC4(C)CCC1C32OO4` (centres unmarked) [TVN6], the EC50 is more than 70 µM in series [2] (setting [6]) and 3.6 ± 2.3 µM in series [3]. Besides, it took 40 ± 20 µM to reach half-maximal cytotoxicity in series [5] (CC50 at 3 days).
Regarding `CC1(C)CCCC(C)(C)N1[O]` [TEMPO, 2,2,6,6-tetramethyl-1-piperidinyloxy, reference compound], the “effect of TEMPO alone on the replication of HCV” value in series [3] (HCV replicon system, concentrations up to 200 µM) is on record as “no effect”.
On to `CC1CCC2C(C)C(OCc3ccc(COC4OC5OC6(C)CCC7C(C)CCC(C4C)C57OO6)cc3)OC3OC4(C)CCC1C32OO4` (centres unmarked) [AJ-004], for which, in series [2], the SI is more than 8. In addition, the results for the EC50 in series [2] (setting [6]) and in series [3] were 16 ± 4 µM and 3.2 ± 2.4 µM, respectively. For the same compound, the “fold more efficient in inhibiting HCV replicon replication compared to the monomer AJ-001” value in series [3] (subgenomic replicon system) was approximately 3 fold. In addition, the “fold more potent than the monomer AJ-002” value in series [3] (subgenomic replicon system) is approximately 10 fold. Also, the CC50 at 3 days in series [4] (setting [7]) and in series [5] was more than 133 µM throughout.
With `CC(=O)N[C@@H](CS)C(=O)O` [L-NAC, L-N-acetylcysteine, reference compound], in series [2] (L-NAC alone at the concentration tested, printed as HCVcc replication), the “HCV RNA replication with L-NAC alone” value is given as 98 % of UTC.
As for Hemin [reference compound], the EC50 in series [2] (setting [8]) was 8 ± 0.6 µM. In addition, the “concentration not toxic to Huh 7.5.1” value in the series on Huh 7.5.1 cells (Hemin alone) is listed as more than 50 µM.
With `C=COC1OC2OC3(C)CCC4C(C)CCC(C1C)C24OO3` (centres unmarked) [TVN4], in series [1], the “effect of the combination with TEMPO” value is given as “marginaly antagonistic effect”. This compound also returned an SI in series [2] of more than 2. The EC50 in series [2] (setting [6]) amounted to 59 ± 6 µM; in series [2] (setting [8]), 52 ± 6 µM; in series [3], 36 ± 16 µM. Further, in series [3], the “fold-change of EC50 with Hemin (5 µM)” value was “+2 fold”. Besides, the results for the CC50 at 3 days in series [4] (setting [7]) and in series [5] were more than 133 µM and 123 ± 14 µM, respectively.
In series [4] (setting [7]), `C[C@H]1[C@@H](O)O[C@@H]2O[C@@]3(C)CC[C@H]4[C@H](C)CC[C@@H]1[C@@]24OO3` [Dihydroartemisinin] returned a CC50 at 3 days of less than 6 µM.
Consider `CC(=O)OC1OC2OC3(C)CCC4C(C)CCC(C1C)C24OO3` (centres unmarked) [TVN2], for which the EC50 in series [2] (setting [6]) is more than 70 µM. Also, in series [3], the EC50 stood at 25 ± 13 µM and the “fold-change of EC50 with Hemin (5 µM)” value is on record as “+4 fold”. Besides, the half-maximal cytotoxic concentration (CC50) at 3 days in series [5] amounted to 36 ± 7 µM.
The compound `C[C@H]1[C@H](OC(=O)CCC(=O)O)O[C@@H]2O[C@@]3(C)CC[C@H]4[C@H](C)CC[C@@H]1[C@@]24OO3` [Artesunate] gave a CC50 at 3 days in series [4] (setting [7]) of less than 6 µM.
In turn, `C[C@@H]1CCC2[C@@H](C)[C@H](OCc3ccc(C=O)cc3)OC3O[C@@]4(C)CCC1[C@]32OO4` (some centres unmarked) [AJ-002] came in with an SI in series [2] of more than 8. The results for the EC50 in series [2] (setting [6]) and in series [3] were 15 ± 2 µM and 30 ± 8 µM, respectively. For the same compound, the “fold-change of EC50 with Hemin (5 µM)” value in series [3] amounted to 15 fold. Besides, the CC50 at 3 days in series [4] (setting [7]) and in series [5] was more than 133 µM each time.
Take `CO[C@H]1O[C@@H]2O[C@@]3(C)CC[C@H]4[C@H](C)CC[C@@H]([C@H]1C)[C@@]24OO3` [Artemether]: the CC50 at 3 days in series [4] (setting [7]) was less than 6 µM.
As to `CCC[C@H](NC(=O)[C@@H]1[C@H]2CCC[C@H]2CN1C(=O)[C@@H](NC(=O)[C@@H](NC(=O)c1cnccn1)C1CCCCC1)C(C)(C)C)C(=O)C(=O)NC1CC1` [VX-950, reference compound], in series [2], the SI is listed as more than 50. The EC50 in series [2] (setting [6]) was 0.2 ± 0.1 µM. The CC50 at 3 days in series [4] was more than 10 µM.
As for `C[C@@H]1CCC2[C@@H](C)[C@H](OCc3ccc(CO)cc3)OC3O[C@@]4(C)CCC1[C@]32OO4` (some centres unmarked) [AJ-001], the SI in series [2] was more than 5. The EC50 came out at 26 ± 5 µM in series [2] (setting [6]) and 8.8 ± 2.7 µM in series [3]. The “fold-change of EC50 with Hemin (5 µM)” value in series [3] is 2 fold. For the same compound, the CC50 at 3 days in series [4] (setting [7]) and in series [5] was more than 133 µM throughout.

Values taken from article PMC3859510 (PLoS ONE, 2013).
